# Test results reported in patent publication US7932270B2 (Cytokinetics, Inc., priority 2006, dated 2011).
# Molecular target: T1, chicken gizzard smooth muscle myosin subfragment-1 chemically crosslinked to cardiac or skeletal actin (Gallus gallus, UniProt P10587)
# T1 construct: chicken gizzard smooth muscle myosin subfragment-1; from tissue; host or cells: chicken gizzard
# Test: Smooth muscle myosin ATPase dose response assay (pyruvate kinase/horseradish peroxidase/pyruvate oxidase-coupled, amplex red fluorescence)
# Assay type: biochemical
# Details: read-out: IC50 Arithmetic Mean
# Method in brief: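 Inhibition is measured in a peroxidase/pyruvate oxidase-linked format at pH 7.00 and 22° C, 0.15 mM ATP final. Myosin input is titrated to a target turnover since active fraction differs between preparations.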
# T1 sequence (P02607 2-151): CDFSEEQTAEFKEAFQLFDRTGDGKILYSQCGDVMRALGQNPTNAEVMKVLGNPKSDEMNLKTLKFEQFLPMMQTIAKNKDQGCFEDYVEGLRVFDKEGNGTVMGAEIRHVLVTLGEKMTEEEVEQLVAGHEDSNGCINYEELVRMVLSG
# T1 sequence (P10587 84-789): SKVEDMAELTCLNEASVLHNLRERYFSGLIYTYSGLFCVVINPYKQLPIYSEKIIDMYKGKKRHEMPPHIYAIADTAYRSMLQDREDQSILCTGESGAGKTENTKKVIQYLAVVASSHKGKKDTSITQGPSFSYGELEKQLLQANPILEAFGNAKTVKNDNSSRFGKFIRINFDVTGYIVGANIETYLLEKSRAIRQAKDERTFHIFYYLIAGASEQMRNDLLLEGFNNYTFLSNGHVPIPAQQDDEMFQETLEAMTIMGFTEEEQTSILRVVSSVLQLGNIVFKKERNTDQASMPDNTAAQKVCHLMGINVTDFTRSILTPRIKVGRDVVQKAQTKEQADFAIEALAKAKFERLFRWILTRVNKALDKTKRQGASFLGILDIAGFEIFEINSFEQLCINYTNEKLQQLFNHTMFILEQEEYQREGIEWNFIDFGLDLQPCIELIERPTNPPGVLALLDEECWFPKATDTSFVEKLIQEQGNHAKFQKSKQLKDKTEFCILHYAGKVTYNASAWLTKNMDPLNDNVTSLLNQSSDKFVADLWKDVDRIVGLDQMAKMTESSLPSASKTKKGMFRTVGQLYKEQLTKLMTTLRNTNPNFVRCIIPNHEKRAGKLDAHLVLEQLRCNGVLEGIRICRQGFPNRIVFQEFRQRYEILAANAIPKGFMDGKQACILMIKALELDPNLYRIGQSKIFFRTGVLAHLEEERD
row,SMILES,IC50
1,N#Cc1ccccc1-c1ccc(C(=O)NCc2ccc(N3CCOCC3)nc2)c(NCCc2cccc(F)c2)n1 [(6-(2-cyanophenyl)-2-{[2-(3-fluorophenyl)ethyl]amino}(3-pyridyl))-N-[(6-morpholin-4-yl(3-pyridyl))methyl]carboxamide],16900 nM
2,N#Cc1ccccc1-c1ccc(C(=O)NCC2CCCC(=O)N2)c(NCCc2cccc(F)c2)n1 (centres unmarked) [(6-(2-cyanophenyl)-2-{[2-(3-fluorophenyl)ethyl]amino}(3-pyridyl))-N-[(6-oxo(2-piperidyl))methyl]carboxamide],29 nM
3,N#Cc1ccccc1-c1ccc(C(=O)NCc2ccc(N3CCNCC3)nc2)c(NCCc2cccc(F)c2)n1 [(6-(2-cyanophenyl)-2-{[2-(3-fluorophenyl)ethyl]amino}(3-pyridyl))-N-[(6-piperazinyl(3-pyridyl))methyl]carboxamide],1750 nM
4,N#Cc1ccccc1-c1ccc(C(=O)NCc2ccc(N3CCCC3)nc2)c(NCCc2cccc(F)c2)n1 [(6-(2-cyanophenyl)-2-{[2-(3-fluorophenyl)ethyl]amino}(3-pyridyl))-N-[(6-pyrrolidinyl(3-pyridyl))methyl]carboxamide],66600 nM
5,N#Cc1ccccc1-c1ccc(C(=O)NCC2CCCCC(=O)N2)c(NCCc2cccc(F)c2)n1 (centres unmarked) [(6-(2-cyanophenyl)-2-{[2-(3-fluorophenyl)ethyl]amino}(3-pyridyl))-N-[(7-oxoazaperhydroepin-2-yl)methyl]carboxamide],95 nM
6,CNC(=O)NCCNC(=O)c1ccc(-c2ccccc2C#N)nc1NCCc1cccc(F)c1 [(6-(2-cyanophenyl)-2-{[2-(3-fluorophenyl)ethyl]amino}(3-pyridyl))-N-{2-[(methylamino)carbonylamino]ethyl}carboxamide],866 nM
7,CS(=O)(=O)NCCNC(=O)c1ccc(-c2ccccc2C#N)nc1NCCc1cccc(F)c1 [(6-(2-cyanophenyl)-2-{[2-(3-fluorophenyl)ethyl]amino}(3-pyridyl))-N-{2-[(methylsulfonyl)amino]ethyl}carboxamide],326 nM
8,CN(CCNC(=O)c1ccc(-c2ccccc2C#N)nc1NCCc1cccc(F)c1)S(C)(=O)=O [(6-(2-cyanophenyl)-2-{[2-(3-fluorophenyl)ethyl]amino}(3-pyridyl))-N-{2-[methyl(methylsulfonyl)amino]ethyl}carboxamide],1380 nM
9,CC(C)(CNC(=O)c1ccc(-c2ccccc2C#N)nc1NCCc1cccc(F)c1)NS(C)(=O)=O [(6-(2-cyanophenyl)-2-{[2-(3-fluorophenyl)ethyl]amino}(3-pyridyl))-N-{2-methyl-2-[(methylsulfonyl)amino]propyl}carboxamide],1470 nM
10,N#Cc1ccccc1-c1ccc(C(=O)NCC2CCCN(CCO)C2=O)c(NCCc2cccc(F)c2)n1 (centres unmarked) [(6-(2-cyanophenyl)-2-{[2-(3-fluorophenyl)ethyl]amino}(3-pyridyl))-N-{[1-(2-hydroxyethyl)-2-oxo(3-piperidyl)]methyl}carboxamide],59 nM
11,N#Cc1ccccc1-c1ccc(C(=O)NCC2CCCN(CCN=[N+]=[N-])C2=O)c(NCCc2cccc(F)c2)n1 (centres unmarked) [(6-(2-cyanophenyl)-2-{[2-(3-fluorophenyl)ethyl]amino}(3-pyridyl))-N-{[1-(3-diazo-3-azaprop-3-enyl)-2-oxo(3-piperidyl)]methyl}carboxamide],412 nM
12,N#Cc1ccccc1-c1ccc(C(=O)NCC2(CCN=[N+]=[N-])CCCNC2=O)c(NCCc2cccc(F)c2)n1 (centres unmarked) [(6-(2-cyanophenyl)-2-{[2-(3-fluorophenyl)ethyl]amino}(3-pyridyl))-N-{[3-(3-diazo-3-azaprop-3-enyl)-2-oxo(3-piperidyl)]methyl}carboxamide],15800 nM
13,N#Cc1ccccc1-c1ccc(C(=O)NCc2ncccc2C(F)(F)F)c(NCCc2cccc(F)c2)n1 [(6-(2-cyanophenyl)-2-{[2-(3-fluorophenyl)ethyl]amino}(3-pyridyl))-N-{[3-(trifluoromethyl)(2-pyridyl)]methyl}carboxamide],603 nM
14,N#Cc1ccccc1-c1ccc(C(=O)NCc2cncc(CO)c2)c(NCCc2cccc(F)c2)n1 [(6-(2-cyanophenyl)-2-{[2-(3-fluorophenyl)ethyl]amino}(3-pyridyl))-N-{[5-(hydroxymethyl)(3-pyridyl)]methyl}carboxamide],81 nM
15,N#Cc1ccccc1-c1ccc(C(=O)NCc2ccc(C(F)(F)F)cn2)c(NCCc2cccc(F)c2)n1 [(6-(2-cyanophenyl)-2-{[2-(3-fluorophenyl)ethyl]amino}(3-pyridyl))-N-{[5-(trifluoromethyl)(2-pyridyl)]methyl}carboxamide],1500 nM
16,N#Cc1ccccc1-c1ccc(C(=O)NCc2cccc(CO)n2)c(NCCc2cccc(F)c2)n1 [(6-(2-cyanophenyl)-2-{[2-(3-fluorophenyl)ethyl]amino}(3-pyridyl))-N-{[6-(hydroxymethyl)(2-pyridyl)]methyl}carboxamide],37 nM
17,CNc1ccc(CNC(=O)c2ccc(-c3ccccc3C#N)nc2NCCc2cccc(F)c2)cn1 [(6-(2-cyanophenyl)-2-{[2-(3-fluorophenyl)ethyl]amino}(3-pyridyl))-N-{[6-(methylamino)(3-pyridyl)]methyl}carboxamide],298 nM
18,N#Cc1ccccc1-c1ccc(C(=O)NCc2cccc(C(F)(F)F)n2)c(NCCc2cccc(F)c2)n1 [(6-(2-cyanophenyl)-2-{[2-(3-fluorophenyl)ethyl]amino}(3-pyridyl))-N-{[6-(trifluoromethyl)(2-pyridyl)]methyl}carboxamide],604 nM

row,SMILES,IC50
1,Cc1cc(-c2ccccc2C#N)nc(NCCc2cccc(F)c2)c1C(=O)NCc1cccnc1 [(6-(2-cyanophenyl)-2-{[2-(3-fluorophenyl)ethyl]amino}-4-methyl(3-pyridyl))-N-(3-pyridylmethyl)carboxamide],1080 nM
2,O=C(NCc1cccnc1)c1ccc(-c2ccccc2F)nc1NCCc1cccc(F)c1 [(6-(2-fluorophenyl)-2-{[2-(3-fluorophenyl)ethyl]amino}(3-pyridyl))-N-(3-pyridylmethyl)carboxamide],139 nM
3,"O=C(NCc1cccnc1)c1ccc(-c2ccc(F)c(F)c2)nc1NCCc1cccc(F)c1 [(6-(3,4-difluorophenyl)-2-{[2-(3-fluorophenyl)ethyl]amino}(3-pyridyl))-N-(3-pyridylmethyl)carboxamide]",534 nM
4,Cn1cc(-c2ccc(C(=O)NCc3cccnc3)c(NCCc3cccc(F)c3)n2)c(C#N)n1 [(6-(3-cyano-1-methylpyrazol-4-yl)-2-{[2-(3-fluorophenyl)ethyl]amino}(3-pyridyl))-N-(3-pyridylmethyl)carboxamide],47 nM
5,O=C(NCc1cccnc1)c1ccc(-c2cccc(F)c2)nc1NCCc1cccc(F)c1 [(6-(3-fluorophenyl)-2-{[2-(3-fluorophenyl)ethyl]amino}(3-pyridyl))-N-(3-pyridylmethyl)carboxamide],157 nM
6,N#Cc1cscc1-c1ccc(C(=O)NCc2cccnc2)c(NCCc2cccc(F)c2)n1 [(6-(4-cyano(3-thienyl))-2-{[2-(3-fluorophenyl)ethyl]amino}(3-pyridyl))-N-(3-pyridylmethyl)carboxamide],14 nM
7,O=C(NCc1cccnc1)c1ccc(-c2ccc(F)cc2)nc1NCCc1cccc(F)c1 [(6-(4-fluorophenyl)-2-{[2-(3-fluorophenyl)ethyl]amino}(3-pyridyl))-N-(3-pyridylmethyl)carboxamide],198 nM
8,CC(=O)c1ccc(-c2ccc(C(=O)NCc3cccnc3)c(NCCc3cccc(F)c3)n2)s1 [(6-(5-acetyl(2-thienyl))-2-{[2-(3-fluorophenyl)ethyl]amino}(3-pyridyl))-N-(3-pyridylmethyl)carboxamide],178 nM
9,N#Cc1ccc(-c2ccc(C(=O)NCc3cccnc3)c(NCCc3cccc(F)c3)n2)s1 [(6-(5-cyano(2-thienyl))-2-{[2-(3-fluorophenyl)ethyl]amino}(3-pyridyl))-N-(3-pyridylmethyl)carboxamide],280 nM
10,Cn1ncc(-c2ccc(C(=O)NCc3cccnc3)c(NCCc3cccc(F)c3)n2)c1C#N [(6-(5-cyano-1-methylpyrazol-4-yl)-2-{[2-(3-fluorophenyl)ethyl]amino}(3-pyridyl))-N-(3-pyridylmethyl)carboxamide],20 nM
11,N#Cc1[nH]ncc1-c1ccc(C(=O)NCc2cccnc2)c(NCCc2cccc(F)c2)n1 [(6-(5-cyanopyrazol-4-yl)-2-{[2-(3-fluorophenyl)ethyl]amino}(3-pyridyl))-N-(3-pyridylmethyl)carboxamide],105 nM
12,N#CCc1ccccc1-c1ccc(C(=O)NCc2cccnc2)c(NCCc2cccc(F)c2)n1 [(6-[2-(cyanomethyl)phenyl]-2-{[2-(3-fluorophenyl)ethyl]amino}(3-pyridyl))-N-(3-pyridylmethyl)carboxamide],16400 nM
13,O=C(NCc1cccnc1)c1ccc(-c2cc(CO)ccc2Cl)nc1NCCc1cccc(F)c1 [(6-[2-chloro-5-(hydroxymethyl)phenyl]-2-{[2-(3-fluorophenyl)ethyl]amino}(3-pyridyl))-N-(3-pyridylmethyl)carboxamide],1190 nM
14,NCc1ccsc1-c1ccc(C(=O)NCc2cccnc2)c(NCCc2cccc(F)c2)n1 [(6-[3-(aminomethyl)(2-thienyl)]-2-{[2-(3-fluorophenyl)ethyl]amino}(3-pyridyl))-N-(3-pyridylmethyl)carboxamide],55700 nM
15,NCc1ccc(-c2ccc(C(=O)NCc3cccnc3)c(NCCc3cccc(F)c3)n2)s1 [(6-[5-(aminomethyl)(2-thienyl)]-2-{[2-(3-fluorophenyl)ethyl]amino}(3-pyridyl))-N-(3-pyridylmethyl)carboxamide],2700 nM
16,"CN(C)C(=O)CNC(=O)c1ccc(-c2ccccc2)nc1NCCc1ccccc1 [N,N-dimethyl-2-({6-phenyl-2-[(2-phenylethyl)amino](3-pyridyl)}carbonylamino)acetamide]",30300 nM
17,"O=C(NCc1ncco1)c1ccc(-c2ccccc2)nc1NCCc1ccccn1 [N-(1,3-oxazol-2-ylmethyl){6-phenyl-2-[(2-(2-pyridyl)ethyl)amino](3-pyridyl)}carboxamide]",4900 nM
